Source: patent US12698264B2, “Synthesis of tigilanol tiglate and analogs thereof” (THE BOARD OF TRUSTEES OF THE LELAND STANFORD JUNIOR …, priority 2021, dated 2026)
Entries after “also recorded” stand apart in the source; their conditions may differ.

Legend:
[1] = Incubation in neutral aqueous media; type: physicochemical; settings: upon incubation in neutral aqueous media
[2] = target: T1, PKC-βI (Homo sapiens, UniProt P05771); type: binding
T1 construct: purchased Invitrogen
Experimental: (§1) The protein kinase C (PKC) affinity of EBC-46 and EBC-46 analogs was performed via competition with ^3H-phorbol-12,13-dibutyrate (^3H-PDBu). This procedure entailed a glass-fiber filtration method to determine bound radioligand.
(§2) Preparation of PKC binding assay buffer: To a 50 mL polypropylene tube was added Tris-HCl (pH 7.4, 1 M, 1 mL), KCl (1 M, 2 mL), CaCl2 (0.1 M, 30 μL), and bovine serum albumin (BSA, 40 mg, Sigma-Aldrich). This mixture was diluted to 20 mL with deionized H2O and mixed gently. The buffer was stored on ice until use.
(§3) Preparation of phosphatidylserine (PS) vesicles: For every two assays, 3.5 mg phosphatidylserine (Avanti Polar Lipids, porcine, 25 mg/mL CHCl3 solution) was concentrated by removing chloroform under a stream of nitrogen followed by reduced pressure. […]
(§4) For each data point, 280 μL of “Master Mix” Solution and 20 μL of analog compound at a specified concentration were added to a polypropylene tube. […] Maximal ^3H-PDBu binding was assessed in triplicate by substitution of the analog compound with 20 μL DMSO. […] Scintillation vials were filled with Bio-Safe II scintillation fluid (5 mL) and measured for radioactivity using a Beckman LS 6000SC scintillation counter. […] The Kd of ^3H-PDBu for PKC isoforms was measured separately via saturation binding experiments under identical conditions.

[3] = test system: protein kinase C (PKC); type: binding, human
Experimental: as §1, §2, §3, §4

[4] = test system: PKC-βI-GFP; type: cell-based, Chinese hamster
Experimental: 2 mL of fresh F-12−/− was then added to each well, taking care not to disturb adherent cells. […] 250 μL of the Lipofectamine 2000 suspension was added to the DNA suspension and the solution incubated for 30 minutes at RT. 500 μL of the Lipofectamine/DNA suspension was added to the respective wells of the 6-well plate. The cells were then incubated at 37° C.

[5] = test system: mast cell tumors; settings: canines, cited from earlier work
[6] = test system: chikungunya virus (CHKV); settings: cited from earlier work
[7] = target: PKC β (Homo sapiens, UniProt P05771); assay: PKC binding of trigowiin A; settings: type of constant not given; read-out: binds with PKC β
[8] = target: PKC δ (Homo sapiens, UniProt Q05655); assay: PKC binding of trigowiin A; settings: type of constant not given; read-out: binds with PKC δ
Sequence of PKC δ (Q05655 whole entry): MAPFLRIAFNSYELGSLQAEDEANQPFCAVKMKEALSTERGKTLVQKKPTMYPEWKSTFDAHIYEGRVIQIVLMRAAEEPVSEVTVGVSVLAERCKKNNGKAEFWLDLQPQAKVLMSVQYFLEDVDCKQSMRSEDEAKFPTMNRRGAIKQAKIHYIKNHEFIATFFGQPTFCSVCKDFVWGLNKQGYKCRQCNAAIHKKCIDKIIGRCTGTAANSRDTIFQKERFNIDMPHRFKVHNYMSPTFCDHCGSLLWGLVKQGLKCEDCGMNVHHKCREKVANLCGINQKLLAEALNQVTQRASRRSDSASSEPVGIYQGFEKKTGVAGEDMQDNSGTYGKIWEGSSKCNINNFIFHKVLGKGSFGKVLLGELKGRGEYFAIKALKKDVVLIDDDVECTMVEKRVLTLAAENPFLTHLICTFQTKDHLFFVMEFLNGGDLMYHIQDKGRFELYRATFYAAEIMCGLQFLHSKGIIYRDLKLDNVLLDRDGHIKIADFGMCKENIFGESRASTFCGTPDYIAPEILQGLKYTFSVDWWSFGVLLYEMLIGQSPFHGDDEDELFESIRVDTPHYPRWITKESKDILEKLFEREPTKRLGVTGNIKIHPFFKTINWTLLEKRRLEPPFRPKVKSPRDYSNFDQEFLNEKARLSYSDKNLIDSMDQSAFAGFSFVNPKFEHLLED

T1 sequence (P05771 whole entry): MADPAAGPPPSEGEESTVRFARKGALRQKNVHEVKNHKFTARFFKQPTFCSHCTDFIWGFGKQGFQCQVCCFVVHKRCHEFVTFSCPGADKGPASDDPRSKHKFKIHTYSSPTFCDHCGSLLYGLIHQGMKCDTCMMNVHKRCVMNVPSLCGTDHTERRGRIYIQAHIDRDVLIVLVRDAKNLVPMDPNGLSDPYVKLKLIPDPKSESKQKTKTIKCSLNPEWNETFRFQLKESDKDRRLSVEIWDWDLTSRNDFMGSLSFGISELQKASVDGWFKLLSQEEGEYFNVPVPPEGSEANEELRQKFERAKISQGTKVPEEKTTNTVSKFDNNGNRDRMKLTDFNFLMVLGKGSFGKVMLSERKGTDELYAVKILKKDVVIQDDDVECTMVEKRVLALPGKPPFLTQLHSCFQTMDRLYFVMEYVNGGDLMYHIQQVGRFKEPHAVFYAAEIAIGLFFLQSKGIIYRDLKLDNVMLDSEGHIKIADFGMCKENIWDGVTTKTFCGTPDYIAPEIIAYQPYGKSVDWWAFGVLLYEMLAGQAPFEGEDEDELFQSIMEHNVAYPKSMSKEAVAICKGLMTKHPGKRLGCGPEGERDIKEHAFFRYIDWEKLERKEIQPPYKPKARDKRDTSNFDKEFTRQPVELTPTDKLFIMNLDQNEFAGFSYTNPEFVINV
Sequence of PKC β (P05771 whole entry, species assumed): as the sequence (P05771 whole entry) above

Row | Compound | stability in neutral aqueous media [1] | PKC isoform binding selectivity [2] | PKC binding affinity [3] | translocation of PKC-βI-GFP [4] | remission ([5]; after a second dose) [%] | complete response ([5]; after a single intratumoral injection) [%] | antiviral activity against chikungunya virus [6] | PKC β binding affinity [7] [nM] | PKC δ binding value (constant type not stated) [8] [nM]
1 | C/C=C(\C)C(=O)O[C@@H]1[C@@H](C)[C@@]2(O)C([C@@H]3C(C)(C)[C@]13OC(=O)[C@@H](C)CC)[C@@H]1O[C@]1(CO)[C@@H](O)[C@]1(O)C(=O)C(C)=C[C@H]12 (stereo partly shown) [EBC-46, tigilanol tiglate] | spontaneously undergo Payne rearrangement to EBC-211 | isoform-selective binding | potent PKC affinity | modest translocation; also recorded: robust translocation | 88 | 75 |  |  | 
2 | CC(=O)O[C@@H]1[C@@H](C)[C@@]2(O)C([C@@H]3C(C)(C)[C@]13OC(C)=O)[C@@H]1O[C@]1(CO)[C@@H](O)[C@]1(O)C(=O)C(C)=C[C@H]12 (stereo partly shown) [SUW401] |  |  | very low PKC binding affinity |  |  |  |  |  | 
3 | trigowiin A |  |  |  |  |  |  | moderate antiviral activity | 19.3 | 20.3
